Reference: US20240301408A1, “MICRORNA 195 COMPOSITIONS AND METHODS FOR TREATING COGNITIVE IMPAIRMENT” (UNITED STATES GOVERNMENT AS REPRESENTED BY THE DEPARTMENT …, priority 2021, published 2024)
Entries after “also recorded” stand apart in the source; their conditions may differ.

Key:
exosomal miR-195-5p = test: brain and serum exosomal miR-195-5p levels in mice treated with synj1-lowering agents; format: in vivo, mouse; conditions: for serum exosomal miR-195 levels: treated 5×FAD mice versus vehicle controls, N=6-8/group; for brain exosomal miR-195-5p levels: treated mice versus controls
Procedure: As disclosed herein, a study was performed to examine exosomal fractions of brain and serum samples of synj1 haploinsufficiency mice (ApoE3 synj1^+/− and ApoE4 synj1^+/−) as well as of mice treated with synj1-lowering agents (SynaptoCpd #9 and Cpd #6). Exosomes were purified using sucrose gradient fractionation methods and the purity of exosome fractions were evaluated by western blot analysis of exosomal protein markers such as ALIX, and uptake studies of fluorescence tagged exosomes by human iPSC-derived astrocyte cultures. […] In addition, serum exosomal miR-195-5p levels were positively correlated with brain exosomal miR-195-5p levels and cognitive performance (NOR preference index and Y maze SAP scores), and reversely correlated with brain insoluble pTau and synj1 protein levels in drug-treated mouse cohorts (FIG. 19C).

ApoE receptors = test: miR-195 levels in ApoE-/- neurons treated with ApoE3-CM or ApoE4-CM in the presence of RAP; format: cell-based, mouse; conditions: N=3/group
Procedure: Mouse Neuronal and human iPSC culture. Primary cortical neurons were cultured (Zhu L et al., Proc Natl Acad Sci USA 2015, and Zhu L et al., J Biol Chem 2013) before being fixed and stained for confocal microscopy analysis (Zeiss LSM) (Berg I et al., Nat Protoc 2010). In some conditions, bovine serum albumin (BSA) or receptor-associated protein (RAP) was included in the cultured media (N=3/group). Alternatively, cultured neurons were transfected with adeno-associated virus 2 (AAV2)-containing miR-195-5p or miR-374 or scramble controls for 5 days before subjected to analysis. […]
Statistical analysis. […] Levels of miR-195-5p and miR-374 were normalized to U6 and RNU6B (internal controls) while synj1 mRNA normalized to GAPDH and 18s, and then expressed as Log2fold of changes when compared to controls. Levels of synj1, dyn1, pTau, Tau, and holoAPP were normalized to β-actin levels and expressed as a percentage of the control. Absolute Aβ42, Aβ40, pTau, Tau, and ApoE concentrations were quantitatively determined by ELISA and expressed as a percentage of the control. […] Pearson correlation coefficients were calculated to determine the linear relationship between the two variables. […]

| Compound | serum exosomal miR-195 levels (exosomal miR-195-5p) | brain exosomal miR-195-5p levels (exosomal miR-195-5p) | miR-195 levels (ApoE receptors; ApoE4 CM+RAP (ApoE4 CM+BSA −3.193±0.144)) [log2FC] | miR-195 levels (ApoE receptors; RAP in the presence of ApoE3-CM) [log2FC] |
| --- | --- | --- | --- | --- |
| COCCOC(=O)C1=C(C)NC(C)=C(C(=O)OC(C)C)C1c1ccc(C(F)(F)F)cc1 (stereo not drawn) [Cpd #6] | much higher; also recorded: significantly elevated | much higher | – | – |
| COCCOC(=O)C1=C(C)NC(C)=C(C(=O)OC(C)C)C1c1ccc(C(C)(C)C)cc1 (stereo not drawn) [Cpd #9] | much higher; also recorded: significantly elevated | much higher | – | – |
| RAP: ApoE-receptor associated protein, an inhibitor of ApoE receptors | – | – | −2.678±0.054 | −1.648±0.125 |
